# Data reported in PubChem BioAssay (NCI).
#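 These data come from cells grown in 96-well plates and exposed to compound for 48 hours at five concentrations. GI50 marks 50% less growth. TGI: total growth inhibition.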
# Experiments:
# Test in all cases: growth of human tumour cells (NCI), 48 h
# [1] = system: SW-620 colon
# [2] = system: MCF7 breast
# [3] = system: HCT-116 colon
# [4] = system: BT-549 breast
# [5] = system: MDA-MB-231 breast
# [6] = system: KM12 colon
# [7] = system: K-562 leukemia
# [8] = system: OVCAR-5 ovarian
# [9] = system: NCI-H23 lung
# [10] = system: SF-539 CNS
# [11] = system: A549 NSCLC
# [12] = system: HOP-62 NSCLC
# [13] = system: COLO 205 colon
# [14] = system: TK-10 renal
# [15] = system: HT29 colon
# [16] = system: MDA-MB-435
# [17] = system: ACHN renal
# [18] = system: 786-0 renal
# [19] = system: HS 578T breast
# [20] = system: MALME-3M melanoma
# [21] = system: SK-MEL-2 melanoma
# [22] = system: IGROV1 ovarian
# [23] = system: A498 renal
# [24] = system: CAKI-1 renal
# [25] = system: SNB-19 CNS
# [26] = system: PC-3 prostate
# [27] = system: RXF 393 renal
# [28] = system: U251 CNS
# [29] = system: NCI-H522 lung
# [30] = system: RPMI-8226 leukemia
# [31] = system: OVCAR-3 ovarian
# [32] = system: SK-OV-3 ovarian
# [33] = system: OVCAR-4 ovarian
# [34] = system: UACC-62 melanoma
# [35] = system: LOX IMVI melanoma
# [36] = system: M14 melanoma
# [37] = system: MOLT-4 leukemia
# [38] = system: HCT-15 colon
# [39] = system: SK-MEL-28 melanoma
# [40] = system: NCI-H226 lung
# [41] = system: HCC-2998 colon
# [42] = system: SN12C renal
# [43] = system: NCI-H460 lung
# [44] = system: HL-60(TB) leukemia
# [45] = system: UO-31 renal
# [46] = system: OVCAR-8 ovarian
# [47] = system: HOP-92 NSCLC
# [48] = system: CCRF-CEM leukemia
# [49] = system: SNB-75 CNS
# [50] = system: SR leukemia
# [51] = system: NCI/ADR-RES ovarian
# [52] = system: DU-145 prostate
# [53] = system: SF-268 CNS
# [54] = system: T-47D breast
# [55] = system: SF-295 CNS
# [56] = system: SK-MEL-5 melanoma
smiles,measurement,setting,value
O=C(Nc1ccc2[nH]c3ccccc3c2c1)c1ccccc1Cl,GI50,[1],3.91 µM
same,TGI,[1],> 100 µM
same,GI50,[2],3.57 µM
same,TGI,[2],> 100 µM
same,GI50,[3],4.86 µM
same,TGI,[3],> 100 µM
same,GI50,[4],5.63 µM
same,TGI,[4],> 100 µM
same,GI50,[5],2.96 µM
same,TGI,[5],20.4 µM
same,GI50,[6],2.32 µM
same,TGI,[6],11.6 µM
same,GI50,[7],2.63 µM
same,TGI,[7],> 100 µM
same,GI50,[8],10.3 µM
same,TGI,[8],> 100 µM
same,GI50,[9],12.2 µM
same,TGI,[9],> 100 µM
same,GI50,[10],2.49 µM
same,TGI,[10],7.22 µM
same,GI50,[11],4.32 µM
same,TGI,[11],> 100 µM
same,GI50,[12],59.4 µM
same,TGI,[12],> 100 µM
same,GI50,[13],3.5 µM
same,TGI,[13],> 100 µM
same,GI50,[14],7.25 µM
same,TGI,[14],> 100 µM
same,GI50,[15],3.78 µM
same,TGI,[15],> 100 µM
same,GI50,[16],0.969 µM
same,TGI,[16],> 100 µM
same,GI50,[17],4.98 µM
same,TGI,[17],> 100 µM
same,GI50,[18],4.05 µM
same,TGI,[18],51 µM
same,GI50,[19],3.84 µM
same,TGI,[19],86.8 µM
same,GI50,[20],4.64 µM
same,TGI,[20],> 100 µM
same,GI50,[21],5.35 µM
same,TGI,[21],74.8 µM
same,GI50,[22],8.85 µM
same,TGI,[22],> 100 µM
same,GI50,[23],2.32 µM
same,TGI,[23],9.19 µM
same,GI50,[24],3.47 µM
same,TGI,[24],> 100 µM
same,GI50,[25],8.16 µM
same,TGI,[25],> 100 µM
same,GI50,[26],3.31 µM
same,TGI,[26],> 100 µM
same,GI50,[27],2.49 µM
same,TGI,[27],8.99 µM
same,GI50,[28],4.62 µM
same,TGI,[28],> 100 µM
same,GI50,[29],2.92 µM
same,TGI,[29],9.66 µM
same,GI50,[30],4.42 µM
same,TGI,[30],> 100 µM
same,GI50,[31],3.43 µM
same,TGI,[31],12.8 µM
same,GI50,[32],8.46 µM
same,TGI,[32],> 100 µM
same,GI50,[33],6.83 µM
same,TGI,[33],> 100 µM
same,GI50,[34],6.53 µM
same,TGI,[34],> 100 µM
same,GI50,[35],3.41 µM
same,TGI,[35],39 µM
same,GI50,[36],3.81 µM
same,TGI,[36],> 100 µM
same,GI50,[37],5.86 µM
same,TGI,[37],> 100 µM
same,GI50,[38],2.95 µM
same,TGI,[38],> 100 µM
same,GI50,[39],5.95 µM
same,TGI,[39],> 100 µM
same,GI50,[40],5.53 µM
same,TGI,[40],> 100 µM
same,GI50,[41],3.84 µM
same,TGI,[41],18.5 µM
same,GI50,[42],5.16 µM
same,TGI,[42],> 100 µM
same,GI50,[43],3.75 µM
same,TGI,[43],> 100 µM
same,GI50,[44],3.07 µM
same,TGI,[44],> 100 µM
same,GI50,[45],5.2 µM
same,TGI,[45],> 100 µM
same,GI50,[46],6.33 µM
same,TGI,[46],> 100 µM
same,GI50,[47],2.84 µM
same,TGI,[47],> 100 µM
same,GI50,[48],3.7 µM
same,TGI,[48],> 100 µM
same,GI50,[49],2.8 µM
same,TGI,[49],24.6 µM
same,GI50,[50],2.7 µM
same,TGI,[50],> 100 µM
same,GI50,[51],3.64 µM
same,TGI,[51],> 100 µM
same,GI50,[52],6.09 µM
same,TGI,[52],> 100 µM
same,GI50,[53],6.77 µM
same,TGI,[53],> 100 µM
same,GI50,[54],8.21 µM
same,TGI,[54],> 100 µM
same,GI50,[55],3.63 µM
same,TGI,[55],> 100 µM
same,GI50,[56],2.88 µM
same,TGI,[56],> 100 µM
